One sequence from patent US8389468B2, “Approach to the treatment of compartment syndrome” (Lantmannen AS-Faktor AB, priority 2006, dated 2013) can be followed below.

Entries after “also recorded” stand apart in the source; their conditions may differ.

The test system of one test is HSV-1 infected rats. The test can be described thus: Outflow of CSF through cribriform lamina, Evans blue-albumin (EBA) infusion in HSV-1 infected rats. It is filed as in vivo, rat. The note with it: 10 or 25 pg intranasally. From the text:
FIG. 6: Sections through the cribriform lamina, a bone structure separating the brain from the nose and through which the olfactory nerve pass. In the left figure (a) the dye-protein complex Evans blue-albumin (EBA) was infused into the subarachnoid space at day 5 after HSV-1 infection. The animal suffered from moderate encephalitis. Note that there is no red EBA in the cribriform lamina, nor in the nose, as the passage between the brain and nasal cavity is blocked. In the right figure (b) EBA was infused into the subarachnoid space of a non-infected, normal rat.
Additional HSV-1 infected animals with distinctly overt symptoms were as well treated with 10 or 25 pg AF-16 intranasally, starting on day 5, 6 or 7, i.e. after having had the vehicle during the previous days. […] Thus, non of the acutely AF-16 treated rats had any persistent signs of deleterious ICP and thus no CS developed. […] That is seen in the mentioned figure (FIG. 5 a) as there is no red staining of the right half on the figure. However, treatment with 10 or 25 pg AF-16 intranasally turned the picture in HSV-1 infected rats as in the normal, non-infected ones. […] Thereby the outflow of CSF was restored and the ICP turned normal.

The test system of a further test is HSV-1. The test can be described thus: Immunohistochemical demonstration of HSV antigens in brain, mice. The settings on record: instillation twice daily in right nostril, six days. It is filed as in vivo. As for the experimental part:
An alternative explanation to the improved survival of HSV-1 infected animals could be that the treatment with AF-16 prevented the virus from multiplying and/or spreading in the brain. […] Adult rats were infected by having a solution of the herpes simplex virus type 1 (HSV-1; strain 2762, batch 041028; 1.7×10^7 PFU/mL) instilled in their right nostril. Half of the animals received 10 min later 25 pi_ (1 or 10 pg) of AF-16 in their right nostril, and had thereafter the same dose of AF-16 instilled every morning at 8 AM and every night at 6 PM until the experiment was terminated on day 6. The other groups of the HSV-1 infected rats received at the same time intervals 25 pL of the vehicle, PBS. The animals were closely watched for signs of general sickness and of behavioral and motor dysfunction. The animals were sacrificed by an overdose of anesthetics on day 6, the skull opened and the brain removed. The brains, including the olfactory bulbs, were fixed by immersion in buffered formalin for at least a day. The brains were the dissected and divided in several specimens, which were processed for light microscopic investigation after paraffin embedding and sectioning. The sections were processed for routine staining and for immunohistochemical visualization of HSV-1 proteins (FIG. 4). […] Note the distinct staining of the nerve cells (black in FIG. 4a-c).

For test [1], the system named is ICP after subarachnoidally deposited blood. As to the kind of experiment: Cerebral CS induced by autologous blood in the subarachnoid space, ICP. It is filed as in vivo, Sprague-Dawley rats. From the text:
A different type of cerebral CS was induced by the injection of […] whole blood in the subarachnoid space, a procedure known from the literature to result in the development of brain oedema and elevated ICP. Anaesthetized adult rats had 50-350 pL heparinzed autologous blood deposited in the subarachnoid space through a small hole drilled in the occipital bone or by injection into the cistern magna through the atlanto-occipital membrane. Holes drilled in a skull bone were eventually plugged with SuperBond@ glue. Such treatments with subarachnoidally deposited blood increased the ICP, inducing the development of a CS in a day or within a week, the exact time depending on the conditions and amount of blood deposited, in agreement with reports in the medical literature. In our experiments, injection of 0.2-0.3 mL autologous, heparinized blood in the cisterna magna in adult Sprague-Dawley rats resulted within 1-3 days in an elevation of the ICP to 13 to 30 mm Hg, as assessed with an implanted miniature pressure light guided probe (Samba System 3200 & Samba Preclin 420 sensor; Samba Sensors AB, Gruvgatan 6, SE 42130 V. Frolunda, Sweden). The ICP in normal adult rats, either non-treated or having had phosphate buffered saline (PBS) injected instead, was 6-9 mm Hg. […] This means that AF-16 is abolishing and, in case of already established cerebral CS, reducing its severity. The prompt response to AF-16 was decisive for the beneficial effect exerted by AF-16.

For test [2], the system named is Musculus extensor digitorum longus (EDL). The test can be described thus: Ischemic injury of skeletal muscle (EDL), compartment pressure. It is filed as in vivo, rat. The protocol: On the hind leg, the large vessels entering the Musculus extensor digitorum longus (EDL) were occluded for 1-3 hours by applying external pressure load (Cf. Jennische & Hansson, 1987; Jennische, Skottner & Hansson, 1987). Thereafter, the blood flow was allowed to resume, and the muscle enclosures and the skin incision repaired and sutured. […] A CS developed as the tissue and the interstitial tissue accumulated fluid in such a closed compartment and additionally the muscle tissue turned swollen and oedematous. The pressure within such an enclosed compartment increased, resulting in the development of a CS. Surgical intervention was required to prevent that parts of the skeletal muscle tissue became necrotic, if there was no additional treatment. […] Thus, treatment with AF-16 prevented the development of a CS, eventually reducing the tissue damage and loss.

The subject of a further test is intervertebral discs. The test can be described thus: Injured or loaded intervertebral discs. It is filed as in vivo, rodents, rabbits and pigs. From the text:
The intervertebral discs, which separate the vertebral bodies in the spine, adjust their dimensions according to the actual load many times a day. The water content in the avascular nucleus pulposus and the annulus fibrosus in a disc is dependant on the supply of fluid, ions, nutrients and oxygen from adjacent ligaments and from the end plates of the vertebrae (Cf. Holm et al., 2007). Vast products from an avascular disc must pass through the same obstacles prior to reaching vascular systems. Therefore, rodents, rabbits and pigs have been assessed regarding effects of AF protein and of AF peptides with regard to effects on the intervertebral discs when loaded and unloaded. […] It is thus disclosed that the AF compounds are beneficial in reducing the swelling and tissue damage at trauma or deformation and/or excessive load on intervertebral discs.

For a further test, the system named is femoral artery. As to the kind of experiment: Injured arteries, local delivery by osmotic minipump. It is filed as in vivo, rat. From the text: During surgery and at a trauma arteries may be injured, causing the vascular wall to swell. These events will result in the development of elevated IFP in the vascular wall, resulting in inflammatory reactions and rebuilding (Hansson, Jennische & Skottner, 1987). […] Additional animals had for comparison their pumps filled with the vehicle. The injured arteries were investigated either 3, 5, 7 or 14 days later. Blood vessels recovered from the vehicle-treated animals were tender, had increased outer diameter and were swollen. […] The potency rate was higher for those treated with AF-16 as compared to the vehicle exposed ones. […] Further, the number of macrophages, foam cells and lymphocytes was as well reduced by the AF-16 treatment.

In the case of VCHSKTRSNPENNVGL [AF-16], the “outflow of CSF to nasal mucosa (EBA staining of cribriform lamina)” value with HSV-1 infected rats was “opened the passage for the CSF through the cribriform plate; also recorded: reversed the block of the outflow of CSF”. In the test on HSV-1, the “distribution or extent of virus antigens in the brain vs vehicle” value was “no obvious difference in the distribution or extent of virus antigens”. In addition, in test [1] (25 pg AF-16 intranasally twice daily), the ICP after treatment entry was “almost normal levels”. The “brain, behavioral and motor function” value in test [1] (25 pg AF-16 intranasally twice daily, vs vehicle) is “neither signs of impaired brain function nor any gross obvious impairment of behavioral or motor functions”. For the same sequence, the “time for elevated ICP to turn to almost normal levels” value in test [1] (25 pg AF-16 intranasally twice daily, elevated ICP 13 to 30 mm Hg, normal 6-9 mm Hg) lay within 1 to 2 h. In addition, the “extent and severity of brain damage” value in test [1] (vs vehicle PBS) is “reduced the extent and severity of the brain damage”. Further, the “pressure within the muscle compartment” value in test [2] (EDL vessels occluded 1-3 hours, Samba pressure sensors) is recorded as “turn about normal”. For the same sequence, in test [2] (vs vehicle), the “extent and volume of muscle tissue damage (light microscopy)” value was “reduced the extent and volume of the tissue damage”. For the same sequence, the “stiffness of intervertebral connections and deformation induced” value in the test with intervertebral discs (after supramaximal loads or trauma, vs vehicle) is listed as “closer to normal”. Further, in the test on intervertebral discs (in vivo), the “damage to nucleus pulposus (light microscopy)” value is recorded as “less damage to the nucleus pulposus”; the “swelling and inflammatory reactions of injured intervertebral discs” value is “reduced the swelling and the inflammatory reactions”. The “swelling and inflammation of injured vessels” value in the test with femoral artery (3, 5, 7 or 14 days, vs vehicle) is “less swollen and inflamed”. In addition, the “damage, inflammatory reactions and reactive alterations (neointima) of femoral artery” value with femoral artery (after 14 days, vs vehicle) is “less damage and less prominent inflammatory reactions and less extensive reactive alterations”. In addition, the “number of macrophages, foam cells and lymphocytes” value in the test on femoral artery (rat, in vivo) was “reduced”. Further, the potency rate entry with femoral artery (vs vehicle) is reported as “higher”.
